Experimental data from patent publication US5776949A, “2-(1H) quinolinone compounds” (Adir et Compagnie, priority 1997, dated 1998).

Assays:
[1] = test system: glutamate-dependent convulsive attacks; test: Anti-convulsant activity in vivo: convulsions triggered by sound stimulus in DBA2 mice
Source text: Likewise, in the DBA2 mice, glutamate-dependent convulsive attacks may be triggered by subjecting the animals to a sound stimulus of high frequency (14 kHz, 103 dB). The anticonvulsion effects are objectivated by the capacity to prevent convulsions arrival and the death which follows.

cerebral infarct = test: Antineurodegenerative activity in vivo: occlusion of the middle cerebral artery (MCA), infarct volume; details: rats; for reduction of cortical edematous infarct volume: 20 mg/kg i.v., 1 hour after arterial occlusion
Method: The occlusion of the sylvian artery (or middle cerebral artery MCA) is at the origin of about 70% of cases of cerebral vascular accidents in man. This type of cerebral ischemia may be reproduced very precisely in rats by intracerebral ligature of the MCA. This definitive occlusion causes, within 24 hours, the formation of a striatocortical infarct of identical location to that observed in a clinical situation. The infarct is perfectly delimited and is therefore histologically measurable. This infarct is of the edematous type. It changes within the following 3 days into a definitive necrotic infarct. The excessive liberation of glutamate is a major pathological feature for the genesis of the cerebral infarct. An antiischemic neuroprotective compound should prevent the formation of this infarct at 24 hours and on its necrotic maturation at 96 hours.
The compounds of the invention are compounds with a potent antiischemic effect, even during post-ischemic delayed treatment (treatment by the i.v. route 1 hour after the arterial occlusion). […] This is a major activity since it also prevents necrotic maturation. Thus, when a 3-day follow-up treatment (10 mg/kg i.p. twice per day) is carried out after the initial i.v. injection (20 mg/kg), the compound of Example 1decreases the volume of the terminal infarct by 44%.

AMPA receptor = test: AMPA-induced currents in Xenopus oocytes injected with rat cerebral cortex poly(A+) mRNA (2-electrode voltage-clamp); assay type: cell-based
Method: (§1) Their efficacy may be studied by means of electrophysiological techniques in vitro and especially by means of the measurement of the currents induced by the glutamatergic agonists in the oocyte of Xenopus.
(§2) Xenopus oocytes are injected with 50 ng of poly(A^+) mRNA isolated from rat cerebral cortex and incubated for 2 to 3 days at 18° C. so as to allow the protein expression thereof. The inflow of currents induced by the EAAs are measured in a medium of composition: NaCl (82.5 mM), KCl (2.5 mM), CaCl2 (1 mM), MgCl2 (1 mM), NaH2 PO4 (1 mM), HEPES (5 mM), pH 7.4 by the 2 electrode Voltage-clamp method (voltage=-60 mV). To measure the currents induced by NMDA and glycine, MgCl2 is absent from the medium and CaCl2 is supplied at the concentration of 2 mM. The EAA agonists inducing the currents are used at the following concentrations: kainate: 100 μM; AMPA: 30 μM; glycine/NMDA: 3/30 μM. The product studied is applied 30 seconds before and during the application of the agonist.

NMDA receptor = test: glycine/NMDA-induced currents in Xenopus oocytes injected with rat cerebral cortex poly(A+) mRNA (2-electrode voltage-clamp); assay type: cell-based; details: glycine/NMDA 3/30 μM; MgCl2 absent, CaCl2 2 mM; product applied 30 seconds before and during agonist
Method: as §1, §2

| Structure (SMILES) | inhibition of mortality ([1]; 50 mg/kg i.p., 30 minutes before sound stimulus) | ED50 ([1]; Mus musculus, ip, 0.5 h, i.p. 30 minutes before sound stimulus (14 kHz, 103 dB), read-out: ED50 (anticonvulsant protection)) | anticonvulsant effects (in words) ([1]; i.p. 30 minutes before sound stimulus) | decrease of the volume of the terminal infarct (cerebral infarct; 20 mg/kg i.v. then 3-day follow-up 10 mg/kg i.p. twice per day) | reduction of cortical edematous infarct volume (cerebral infarct) | IC50 (AMPA receptor; AMPA 30 μM, voltage -60 mV, product applied 30 seconds before and during agonist) | selectivity for the AMPA receptor (AMPA receptor; AMPA versus NMDA, Xenopus oocytes) | IC50 (NMDA receptor) | solubility in water (in words) (Solubility in water) |
| --- | --- | --- | --- | --- | --- | --- | --- | --- | --- |
| O=c1[nH]c2cc([N+](=O)[O-])ccc2cc1S(=O)(=O)O [Example 1, 7-Nitro-2-(1H)-quinolinone-3-sulfonic acid] | more than 80% | 26.9 mg/kg | strongly protects the animals | 44% | 45% |  |  |  |  |
| O=c1[nH]c2cc([N+](=O)[O-])c([N+](=O)[O-])cc2cc1S(=O)(=O)O [Example 2, 6,7-Dinitro-2-(1H)-quinolinone-3-sulfonic acid] |  |  |  |  | 27% | 200 nM | 40 times | 8 µM | soluble in water |
